Test results as given in patent US20220273702A1, “HYDROGEN SULFIDE AND NITRIC OXIDE THERAPY FOR COVID-19 INFECTION” (Board of Supervisors of Louisiana State University and …, priority 2021, published 2022).

Assays:
CSE = format: cell-based
p-eNOS = format: cell-based
C-reactive protein (CRP) = test: Single COVID-19 case study: CRP levels; conditions: single COVID-19 subject, following remdesivir for 5 days; 1.35 and 1.77 mg/dL during infection; normal range 0.3-1.0 mg/dL
sulfide = test: Single COVID-19 case study: plasma sulfide (monobromobimane method); format: in vivo, human; conditions: single COVID-19 subject, 14 days post-treatment
Total NO = test: Single COVID-19 case study: plasma total NO (ozone-based chemiluminescence); conditions: single COVID-19 subject, 280 nM during infection, 400 nM baseline

SMILES	restoration of CSE protein expression (CSE)	restoration of p-eNOS protein expression (p-eNOS)	CRP level (C-reactive protein (CRP)) [mg/dL]	sulfide level (sulfide) [µM]	Total NO level (Total NO; 5 days post-treatment) [nM]	Total NO level (Total NO; 14 days post-treatment) [nM]
C=CCSSSCC=C [DATS, diallyl trisulfide]	two-fold	two-fold	–	–	–	–
CCC(CC)COC(=O)[C@H](C)N[P@](=O)(OC[C@H]1O[C@@](C#N)(c2ccc3c(N)ncnn23)[C@H](O)[C@@H]1O)Oc1ccccc1 [remdesivir]	–	–	0.78	1.447	200	280
